Test results from patent publication US9724340B2, “Antitussive compositions and methods” (Attenua, Inc., priority 2015, dated 2017).

Test system: conscious guinea pigs
Test: Citric acid inhalation cough model in conscious guinea pigs
Type: in vivo, guinea pig
Conditions: 30 min before citric acid aerosols 0.01M-0.3M
Description: Cough suppression was evaluated in conscious guinea pigs using a citric acid inhalation model (Smith et al., 2012). Guinea pigs were pretreated intraperitoneally with drug vehicle (saline), α7 PHA543613 (10 mg/kg) (FIG. 3), or (2S,3R)—N-(2-(3-pyridinyl)methyl)-1-azabicyclo[2.2.2]oct-3-yl)benzofuran-2-carboxamide (30 mg/kg) (FIG. 4). Respiration and cough reflexes were measured using a Buxco inhalation chamber connected to a Biopac data acquisition system. Thirty minutes after vehicle or drug administration, animals were challenged in sequence with ascending aerosol concentrations of citric acid (0.01M-0.3M), with each aerosol delivered for 5 minutes and with 5 minutes interval in between challenges. The cumulative coughs evoked were quantified and results are presented as a mean±standard error of the mean (SEM) of n experiments, where n refers to a single animal). Studies were performed using a nonpaired parallel group design. Differences amongst group means were evaluated by t-test or ANOVA, with a p<0.05 considered statistically significant which is represented by an asterisk (*) in FIG. 3 and FIG. 4.

| Compound | cumulative citric acid evoked coughs (in words) (10 mg/kg intraperitoneally, FIG. 3) | cumulative citric acid evoked coughs (in words) (30 mg/kg intraperitoneally, FIG. 4) |
| --- | --- | --- |
| O=C(N[C@H]1CN2CCC1CC2)c1cc2ccoc2cn1 [PHA543613] | markedly inhibited citric acid evoked coughs | – |
| O=C(N[C@@H]1C2CCN(CC2)[C@H]1Cc1cccnc1)c1cc2ccccc2o1 [(2S,3R)—N-(2-((3-pyridinyl)methyl)-1-azabicyclo[2.2.2]oct-3-yl)benzofuran-2-carboxamide] | – | markedly inhibited citric acid evoked coughs |
